EP3628672A1 (priority 2018, dated 2020)
Where two headings read alike, the source gives them in different places.

Biological target: T1, purified LasB protein from P. aeruginosa (Pseudomonas aeruginosa, UniProt P14756)
T1 construct: purchased Merck or Charles River Laboratories
Experiment: Fluorometric assay to determine Ki (Abz-Ala-Gly-Leu-Ala-p-Nitro-Benzyl-Amide substrate)
Assay type: biochemical
Method: Experiments were therefore conducted (1) to measure the potency of inhibition of compounds of the invention against purified Pseudomonas aeruginosa LasB enzyme and also experiments were conducted (2) to measure the ability of compounds of the invention to inhibit LasB-catalysed elastin degradation. The first assay uses a commercial fluorescent synthetic peptide and purified LasB enzyme. The LasB hydrolysis kinetics are measured allowing the determination of the IC50 and Ki of the inhibitors; the second is a more physiological assay using dialysed Pseudomonas aeruginosa supernatant as source of enzyme, plus its natural substrate Elastin. It is an "end point assay" that determines the percentage of LasB inhibition by each compound for one particular time point and inhibitor concentration. Technical details are described below:
This assay uses commercially available substrate (Abz-Ala-Gly-Leu-Ala-p-Nitro-Benzyl-Amide (Ex: 340 nm, Em: 415 nm) from Peptide International) and purified LasB protein from P. aeruginosa (provided by Merck or Charles River Laboratories). It is performed to determine LasB elastase activity and assess compound inhibition in 96-well plate format. All compounds of Formula (I) were assessed using the method described below.
Method: 10 to 140 ng/ml purified LasB is incubated with 250 µM Abz-Ala-Gly-Leu-Ala-p-Nitro-Benzyl-Amide in 50 mM Tris-HCl pH 7.4, 2.5 mM CaCl2, 0.01% of Triton X100 at 37°C. LasB activity (corresponding to fluorescence emission induced by substrate hydrolysis) is measured over 30 min at 37°C with a fluorescence plate reader such as the Perkin Elmer Envision or similar. Different range of inhibitor concentrations are routinely assessed depending of inhibitor potency from 0.0016 to 200 µM (2-fold dilutions series) in order to determine IC50.
The equation used to calculate the Ki from IC50 is: Ki = IC50 / (1+([S]/Km)) where [S] = 250 µM and Km = 214 µM.

[1] = Ki calculated from IC50, [S] = 250 µM, Km = 214 µM, 37°C, pH 7.4

T1 sequence (P14756 198-498): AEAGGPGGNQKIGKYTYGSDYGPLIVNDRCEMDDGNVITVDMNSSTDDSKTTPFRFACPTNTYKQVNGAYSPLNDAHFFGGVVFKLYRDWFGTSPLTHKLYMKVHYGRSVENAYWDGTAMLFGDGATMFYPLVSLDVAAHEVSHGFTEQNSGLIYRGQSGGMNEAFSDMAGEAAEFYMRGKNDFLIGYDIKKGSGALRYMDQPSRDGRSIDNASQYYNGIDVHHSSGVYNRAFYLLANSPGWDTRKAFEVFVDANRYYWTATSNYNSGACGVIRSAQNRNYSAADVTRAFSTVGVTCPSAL

| Compound | Ki | Ki [1] |
| --- | --- | --- |
| O=C(O)CC1(C(=O)NCc2nc3ccccc3s2)Cc2cc(Cl)c(Cl)cc2C1 [Example 4, 2-(2-((benzo[d]thiazol-2-ylmethyl)carbamoyl)-5,6-dichloro-2,3-dihydro-1H-inden-2-yl)acetic acid] | 200 to 10000 nM | – |
| CN(C)C1CCN(C(=O)c2ccc(-c3csc(CNC(=O)C4(CC(=O)O)Cc5ccccc5C4)n3)cc2)CC1 [Example 17, 2-[2-[[4-[4-[4-(dimethylamino)piperidine-1-carbonyl]phenyl]thiazol-2-yl]methylcarbamoyl]indan-2-yl] acetic acid] | 200 to 10000 nM | – |
| CN(C)[C@H]1CCN(C(=O)c2ccc(-c3csc(CNC(=O)C4(CC(=O)O)Cc5ccccc5C4)n3)cc2)C1 [Example 18, 2-[2-[[4-[4-[(3S)-3-(dimethylamino)pyrrolidine-1-carbonyl]phenyl]thiazol-2-yl]methylcarbamoyl]indan-2-yl]acetic acid] | 200 to 10000 nM | – |
| CN(C)CCCNC(=O)c1ccccc1-c1csc(CNC(=O)C2(CC(=O)O)Cc3ccccc3C2)n1 [Example 21, 2-[2-[[4-[2-[3-(dimethylamino)propylcarbamoyl]phenyl]thiazol-2-yl]methylcarbamoyl]indan-2-yl]acetic acid] | 200 to 10000 nM | – |
| C[N+]1(C)CCN(C(=O)c2ccc(-c3csc(CNC(=O)C4(CC(=O)[O-])Cc5ccccc5C4)n3)cc2)CC1 [Example 22, 2-[2-[[4-[4-(4,4-dimethylpiperazin-4-ium-1-carbonyl)phenyl]thiazol-2-yl]methylcarbamoyl]indan-2-yl]acetate] | 200 to 10000 nM | – |
| COc1ccc(C(=O)NCCN(C)C)cc1-c1csc(CNC(=O)C2(CC(=O)O)Cc3ccccc3C2)n1 [Example 24, 2-[2-[[4-[5-[2-(dimethylamino)ethylcarbamoyl]-2-methoxy-phenyl]thiazol-2-yl]methylcarbamoyl]indan-2-yl]acetic acid] | 200 to 10000 nM | – |
| COc1ccc(C(=O)N2CCN(C)CC2)cc1-c1csc(CNC(=O)C2(CC(=O)O)Cc3ccccc3C2)n1 [Example 25, 2-[2-[[4-[2-methoxy-5-(4-methylpiperazine-1-carbonyl)phenyl)thiazol-2-yl]methylcarbamoyl]indan-2-yl]acetic acid] | 200 to 10000 nM | – |
| CN(C)C1CN(c2cccc(-c3csc(CNC(=O)C4(CC(=O)O)Cc5ccccc5C4)n3)c2)C1 [Example 29, 2-[2-[[4-[3-[3-(dimethylamino)azetidin-1-yl]phenyl]thiazol-2-yl]methylcarbamoyl]indan-2-yl]acetic acid] | 200 to 10000 nM | – |
| C[N+](C)(C)CC(=O)Nc1ccc(-c2csc(CNC(=O)C3(CC(=O)[O-])Cc4ccccc4C3)n2)cc1 [Example 40, 2-[2-[[4-[4-[[2-(trimethylammonio)acetyl]amino]phenyl]thiazol-2-yl]methylcarbamoyl]indan-2-yl] acetate] | 200 to 10000 nM | – |
| CN(C)CC(=O)Nc1cccc(-c2csc(CNC(=O)C3(CC(=O)O)Cc4ccccc4C3)n2)c1 [Example 41, 2-[2-[[4-[3-[[2-(dimethylamino)acetyl]amino]phenyl]thiazol-2-yl]methylcarbamoyl]indan-2-yl]acetic acid] | 200 to 10000 nM | – |
| C[N+](C)(C)CC(=O)Nc1cccc(-c2csc(CNC(=O)C3(CC(=O)[O-])Cc4ccccc4C3)n2)c1 [Example 42, 2-[2-[[4-[3-[[2-(trimethylammonio)acetyl]amino]phenyl]thiazol-2-yl]methylcarbamoyl]indan-2-yl] acetate] | 200 to 10000 nM | – |
| CN(C)CCOc1ccc(-c2csc(CNC(=O)C3(CC(=O)O)Cc4ccccc4C3)n2)cc1 [Example 48, 2-[2-[[4-[4-[2-(dimethylamino)ethoxy]phenyl]thiazol-2-yl]methylcarbamoyl]indan-2-yl]acetic acid] | 200 to 10000 nM | – |
| NC1CCN(C(=O)COc2ccc(-c3csc(CNC(=O)C4(CC(=O)O)Cc5ccccc5C4)n3)cc2)CC1 [Example 52, 2-[2-[[4-[4-[2-(4-amino-1-piperidyl)-2-oxo-ethoxy]phenyl]thiazol-2-yl]methylcarbamoyl]indan-2-yl]acetic acid] | 50 to 200 nM | – |
| CN(C)CCOc1cccc(-c2csc(CNC(=O)C3(CC(=O)O)Cc4ccccc4C3)n2)c1 [Example 53, 2-[2-[[4-[3-[2-(dimethylamino)ethoxy]phenyl]thiazol-2-yl]methylcarbamoyl]indan-2-yl]acetic acid] | 200 to 10000 nM | – |
| CN(C)CCn1cc(-c2csc(CNC(=O)C3(CC(=O)O)Cc4ccccc4C3)n2)cn1 [Example 97, 2-[2-[[4-[1-[2-(dimethylamino)ethyl]pyrazol-4-yl]thiazol-2-yl]methylcarbamoyl]indan-2-yl]acetic acid] | 200 to 10000 nM | – |
| C[N+]1(CCCn2cc(-c3csc(CNC(=O)C4(CC(=O)[O-])Cc5ccccc5C4)n3)cn2)CCOCC1 [Example 100, 2-[2-[[4-[1-[3-(4-methylmorpholin-4-ium-4-yl)propyl]pyrazol-4-yl]thiazol-2-yl]methylcarbamoyl]indan-2-yl]acetate] | – | 200 to 10000 nM |
| CC(=O)N1CC[N+](C)(CCCn2cc(-c3csc(CNC(=O)C4(CC(=O)[O-])Cc5ccccc5C4)n3)cn2)CC1 [Example 107, 2-[2-[[4-[1-[3-(4-acetyl-1-methyl-piperazin-1-ium-1-yl)propyl]pyrazol-4-yl]thiazol-2-yl]methylcarbamoyl]indan-2-yl]acetate] | 200 to 10000 nM | – |
| O=C(O)CC1(C(=O)NCc2nc(-c3cnn(CCCN4CCCCC4)c3)cs2)Cc2ccccc2C1 [Example 111, 2-[2-[[4-[1-[3-(1-piperidyl)propyl]pyrazol-4-yl]thiazol-2-yl]methylcarbamoyl]indan-2-yl]acetic acid] | 200 to 10000 nM | – |
| CN(C)C(=O)C1CCN(CCCn2cc(-c3csc(CNC(=O)C4(CC(=O)O)Cc5ccccc5C4)n3)cn2)CC1 [Example 113, 2-[2-[[4-[1-[3-[4-(dimethylcarbamoyl)-1-piperidyl]propyl]pyrazol-4-yl]thiazol-2-yl]methylcarbamoyl]indan-2-yl]acetic acid] | 200 to 10000 nM | – |
| C[N+]1(C)CCC(C(=O)N2CC[N+](C)(CCCn3cc(-c4csc(CNC(=O)C5(CC(=O)O)Cc6ccccc6C5)n4)cn3)CC2)CC1 [Example 115, 2-[2-[[4-[1-[3-[4-(1,1-dimethylpiperidin-1-ium-4-carbonyl)-1-methyl-piperazin-1-ium-1-yl]propyl]pyrazol-4-yl]thiazol-2-yl]methylcarbamoyl]indan-2-yl] acetate] | – | 200 to 10000 nM |
| C[n+]1ccc(CCn2cc(-c3csc(CNC(=O)C4(CC(=O)[O-])Cc5ccccc5C4)n3)cn2)cc1 [Example 117, 2-[2-[[4-[1-[2-(1-methylpyridin-1-ium-4-yl)ethyl]pyrazol-4-yl]thiazol-2-yl]methylcarbamoyl]indan-2-yl]acetate] | 200 to 10000 nM | – |
| C[n+]1ccc(CCCn2cc(-c3csc(CNC(=O)C4(CC(=O)[O-])Cc5ccccc5C4)n3)cn2)cc1 [Example 118, 2-[2-[[4-[1-[3-(1-methylpyridin-1-ium-4-yl)propyl]pyrazol-4-yl]thiazol-2-yl]methylcarbamoyl]indan-2-yl]acetate] | 200 to 10000 nM | – |
| CN(C)CCNS(=O)(=O)c1ccc(-c2csc(CNC(=O)C3(CC(=O)O)Cc4ccccc4C3)n2)cc1 [Example 131, 2-[2-[[4-[4-[2-(dimethylamino)ethylsulfamoyl]phenyl]thiazol-2-yl]methylcarbamoyl]indan-2-yl]acetic acid] | 200 to 10000 nM | – |
| CN1CCN(C(=O)c2cncc(-c3csc(CNC(=O)C4(CC(=O)O)Cc5ccccc5C4)n3)c2)CC1 [Example 144, 2-[2-[[4-[5-(4-methylpiperazine-1-carbonyl)-3-pyridyl]thiazol-2-yl]methylcarbamoyl]indan-2-yl]acetic acid] | 200 to 10000 nM | – |
